Source: patent US20030188344A1 (priority 2000, published 2003)
“Also recorded” adds a separate entry of the source.

Key:
[1] = tested on: vir gene expression in wild-type strain A348; experiment: vir induction assay, β-galactosidase reporter, wild-type strain; assay type: cell-based, A. tumefaciens; settings: wild-type A348/pSW209
Description: (§1) vir Induction Assay. A. tumefaciens strains were grown overnight at 27° C. to an optical density of about 0.3-0.6 at 600 nm (OD600) in LB medium supplemented win appropriate antibiotics. Cells were then pelleted by centrifugation and resuspended to an OD600 of 0 1 per ml in sterilized induction medium (ABIM. pH 5.5) supplemented with either 1% glucose or 1% glycerol with or without 0.1% arabinose (w/v). The verious phenolic compounds tested were dissolved in a minimal amount of DMSO in water as mM stocks, and diluted with ABIM to the desired concentration (final DMSO concentration was no greater than 0.1%). The bacteria were incubated with at 28° C. for 8-16 hours and subsequently assayed for β-galactosidase activity by the method of Miller, 1972. ED50 values for the inducers evaluated were estimated from such dose response plots. Each assay value reported is the mean of three replicates; error bar indicates one standard deviation from the mean. Data are representative of three similar independent experiments.

[2] = tested on: vir gene expression in hypersensitive mutants (AB140, AB147); experiment: vir induction assay, β-galactosidase reporter, phenol hypersensitive mutants; assay type: cell-based, A. tumefaciens; settings: for vir inducing activity / hypersensitivity in mutants: hypersensitive mutants, e.g. AB140, versus wild-type
Description: as §1
To ensure that the mutants hypersensitive to AS were a result of a change in the vir gene induction pathway rather than a mutation in the reporter plasmid pAC2, other methods to analyze vir gene induction and the virulence response were investigated. First, all nine mutants were transformed with pSW209 carrying a virB::lacZ reporter construct. The β-galactosidase activities of all strains were hypersensitive in an AS dose-response study. The observed changes are not due to some artifact of the reporter plasmids as the expression of VirB10, one of the proteins of the virB operon on its Ti plasmid, in cells of AB140 was detectable after induction with 0.3 μM AS. Wild-type cells required 1 μM AS to produce detectable VirB10. Thus, the mutants are hypersensitive to AS when assaying either the virB^P/nptII reporter, the virB::lacZ reporter, or directly assaying expression of VirB10 from the native viral promoter on the Ti plasmid.

[3] = tested on: vir gene expression; experiment: vir gene expression inhibition, β-galactosidase (lacZ under vir promoter); assay type: cell-based, A. tumefaciens
Description: Vir Induction Assay. A. tumefaciens strains were grown overnight at 27° C. to an OD of 0.3-0.6 in LB medium supplemented with appropriate antibiotics. Cells were then pelleted by centrifugation and resuspended to an OD of 0.1 per ml in sterilized induction medium (ABIM, pH 5.5) supplemented with either 1% glucose or 1% glycerol. The various inducer and Inhibitor compounds tested were dissolved in a minimal amount of DMSO in water as mM stocks, and diluted with ABIM to the desired concentration (final DMSO concentration was no greater than 0.1%). The bacteria were incubated with at 28° C. for 8-16 hr and subsequently assayed for β-galactosidase activity by the method of Miller (1986). IC50 values for the Inhibitors evaluated were estimated from such dose response plots. Each assay value reported is the mean of three replicates; error bar indicates one standard deviation from the mean. Data are representative of three similar independent studies.
The capacity of 1 to inhibit vir gene expression was tested by monitoring β-galactosidase activity in an A. tumefaciens strain carrying wild-type vir induction genes and a lacZ gene under the control of a vir promoter (Hess et al., 1991). […] A more precise test for specificity was available via the utilization of a plasmid containing a virA gene, the putative AS receptor, which contitutively expressed the vir genes in the absence of AS. […] Therefore, the inhibition by 1 occurs upstrean, of VirA activation.

[4] = tested on: A. tumefaciens strain A348/pAC2 and AB140/pAC2; experiment: kanamycin resistant growth with pAC2 (virB promoter/nptII); assay type: cell-based; settings: for survival on induction plates plus kanamycin: A348/pAC2, 40 μg/ml kanamycin; for kanamycin resistant growth of AB140 compared with wild-type (inducer sensitivity): liquid medium, AB140/pAC2 vs A348/pAC2 (FIG. 9)
Description: Mutant Selection. […] Phenolic hypersensitive mutants were selected as follows. Individual colonies of A348/pAC2 were grown overnight in LB broth plus spectinomycin, and the progeny from each colony kept separate to ensure that each mutation was an individual event, not part of a clonal population. The bacteria were subsequently washed in ABIM medium, resuspended to an OD600 of approximately 0.1 and induced overnight in ABIM media plus 100 μM AS. The next day the cells had grown to an approximate OD600 of 1.0 and 2×10^5 to 2×10^6 bacteria were plated onto plates confining ABIM medium containing 10 μM AS and 40 μg/ml kanamycin. Colonies that grew on this selection medium were subsequently assayed for growth on plates containing kanamycin but no phenolic. Colonies that grew under these conditions are constitutive for kanamycin resistance and were not characterized further, while colonies that couldn't survive in this screen were characterized further.
The kanamycin resistance test of selected colonies in response to different doses of phenol was done in the following manner: after one night of induction in ABIM over a range of inducer concentrations, as described above, the bacteria were washed and subcultured into ABIM at a starting OD600 of approximately 0.1. The ABIM included phenolics at a range of concentrations between 0.1-1000 μM. At each concentration of inducer three cultures have kanamycin at a concentration of 20 μg/mL, while one culture has no kanamycin. After overnight culture the OD600 is determined and kanamycin resistant growth as a percentage of control is determined using the following calculation: [formula]

[5] = tested on: VirB10 expression; experiment: VirB10 immunoblot; assay type: cell-based, A. tumefaciens
Description: Immunoblot. Cultures of different strains were induced overnight in ABIM containing 1% glycerol and 0.1% arabinose and varying phenolic concentrations. Samples from each culture, containing an equivalent OD600, were denatured by boiling in sample buffer for 3-10 minutes, and 10 μL from each sample was loaded onto 10% acrylamide gels and separated via SDSpolyacrylamide gel electrophoresis (PAGE). Proteins were transferred from the acrylamide gel to nitrocellulose purchased from Schleicher and Schell (Keene, N. H.) by electrotransfer. VirB 10 expression was examined using immunoblot procedures and antibodies described in Beaupre et al., 1997.

[6] = tested on: leaf explants of Nicotiana tabacum cv Havana 425; experiment: tobacco leaf tumor (virulence) assay
Description: Virulence Assays The capacity of various strains of A. tumefaciens to induce tumors on leaf explants of Nicotiana tabacum cv Havana 425 was tested as described previously. Banta et al., 1994.
In this assay, bacteria and leaf explants are co-cultivated for two days at varying levels of AS and then transferred to antibiotic containing medium that stops bacterial growth but allows plant tumor growth. Banta et al., 1994. In the case of wild-type strain A348, some tumor formation is observed on the leaf explants co-cultivated in the absence of AS in the co-cultivation, as expected because of xenognostic phenols released from the wounded cells (FIG. 10). […] Importantly, the maximum number of tumors formed by both the wild-type strain and AB140 was approximately the same, consistent with the observation that AB140's hypersensitivity is not a result of simple overexpression of the vir genes.

[7] = tested on: VirA expression by native PvirA; settings: with AS induction; cited from earlier work
[8] = tested on: occ regulon; experiment: occ regulon induction (specificity control); assay type: cell-based, A. tumefaciens; settings: same plasmid; data not shown
[9] = physchem; assay type: physicochemical; settings: buffer
Description: Curiously, 1 appears the most hydrolytically labile of this class of structures, with a measured t1/2<4 hr at pH 5.5, and […] at pH 7. […] Moreover, from estimates of the surface area per seedling, the concentration of 1 around the radicle of one-week-old maize seedlings should be between […] and 10 mM, depending on whether a 10 μ or a 100 μ volume element is used to define the surface hydration. […] This inhibitory zone readily explains the observed difficulty transforming this organ with the bacterium.

COc1cc([C@@H]2C[C@H]2CO)ccc1O (relative stereo) [(+)-trans-CP, trans-[3-(4-Hydroxy-3-methoxy-phenyl)-cyclopropyl]methanol]
vir inducing activity (virB::lacZ β-galactosidase) [1]: virtually all the activity of the trans racemate; also recorded: active
vir inducing activity / hypersensitivity in mutants [2]: all the inducing activity of the racemate

COc1ccc2[nH]c(=O)oc2c1 [6-methoxy-2H-benzoxazolin-2(3H)-one]
activity of decomposition product ([3]; under the assay conditions): inactive

COC(=O)/C=C/c1cc(OC)c2c(c1)C(C(=O)OC)C(c1ccc(O)c(OC)c1)O2 [(2R,3R)-(−)-trans-DDF, trans-dehydroferulate dimethylester, reference compound]
vir inducing activity (virB::lacZ β-galactosidase) [1]: all the inducing activity of the racemic mixture
vir inducing activity (virB::lacZ β-galactosidase) ([1]; listed as (−)-trans-DDF): active

COc1cc(C(C)=O)cc(OC)c1O [AS, Acetosyringone]
sensitivity to AS compared with wild-type strain A348 ([2]; AB140, 0.1% arabinose present in induction medium): increased
AS concentration for response compared with wild-type ([2]; AB147 class, absence of arabinose): half-log lower concentration
vir inducing activity / hypersensitivity in mutants [2]: hypersensitive
survival on induction plates plus kanamycin ([4]; 30 μM AS): killed
survival on induction plates plus kanamycin ([4]; 100 μM AS): survive
kanamycin resistant growth of AB140 compared with wild-type (inducer sensitivity) [4]: one-half log lower concentration
AS concentration giving detectable VirB10 ([5]; cells of AB140): 0.3 µM
AS concentration required to produce detectable VirB10 ([5]; wild-type cells): 1 µM
AS concentration for maximal capacity to induce tumors, relative to wild-type ([6]; hypersensitive mutant AB140 (FIG. 10)): log order lower concentration
number of tumors formed per infected leaf explant ([6]; wild-type strain A348, increasing phenol in co-cultivation medium (FIG. 10)): significantly increased
induction of VirA expression by native PvirA [7]: ~8 fold

COc1cc(C(C)=O)ccc1O [AV, acetovallinone]
kanamycin resistant growth of AB140 compared with wild-type (inducer sensitivity) [4]: not hypersensitive

COc1cc2c(c(OC)c1O)CCC2=O [D-indanone, 5-hydroxy-4,6-dimethoxyindanone]
vir inducing activity (virB::lacZ β-galactosidase) [1]: little changed
vir inducing activity / hypersensitivity in mutants [2]: hypersensitive

COc1c(O)ccc2c1CCC2=O [E-indanone, 5-hydroxy-4-methoxy-1-indanone]
vir inducing activity (virB::lacZ β-galactosidase) [1]: equivalent activity
vir inducing activity / hypersensitivity in mutants [2]: hypersensitive

COc1cc2c(cc1O)CCC2=O [Z-indanone, 5-hydroxy-6-methoxy-1-indanone]
vir inducing activity (virB::lacZ β-galactosidase) [1]: equivalent activity

COc1cc(C2CC2CO)ccc1O (stereo not drawn) [cis-CP]
vir inducing activity (virB::lacZ β-galactosidase) [1]: equivalent activity

COc1ccc2c(c1)OC(O)C(=O)N2OC (centres unmarked) [compound 1]
actual IC50 ([3]; based on decomposition rates during the 8 hr assay period): nanomolar range
inhibition of vir gene expression (β-galactosidase activity) ([3]; expression induced by 100 uM acetosyringone, wild-type vir induction genes): strongly inhibits
effect on constitutively activated VirA strain (FIG. 2) ([3]; virA G665D expressing vir genes in the absence of AS): functions independently
effect on induction of the occ regulon [8]: unaffected
half-life ([9]; pH 5.5): < 240 min
half-life ([9]; pH 7): ~10 min
